Patent US8981111B2 (priority 2008, dated 2015)

Assay: log P (HPLC/MS data of the preparation examples)
Conditions: for log p: method [b]: LC-MS at pH 2.7, 0.1% formic acid in water / acetonitrile, linear gradient 10% to 95% acetonitrile; for chromatographic logP: reversed phase HPLC column, pH 2.7

SMILES | log p | chromatographic logP
CCCCCOC(=O)Nc1cccc(CON=C(c2ccccc2)c2nnc(C(F)(F)F)n2C)n1 [Example 197] | 4.49^[b] | –
Cn1c(C(=NOCc2cccc(NC(=O)C(C)(C)C)n2)c2ccccc2)nnc1C(F)(F)F [Example 198] | 3.58^[b] | –
Cn1c(C(=NOCc2cccc(NC(=O)Cc3ccccc3)n2)c2ccccc2)nnc1C(F)(F)F [Example 200] | 3.6^[b] | –
Cn1c(C(=NOCc2cccc(NC(=O)CCc3ccccc3)n2)c2ccccc2)nnc1C(F)(F)F [Example 201] | 3.85^[b] | –
Cn1c(C(=NOCc2cccc(NC(=O)C3CCCC3)n2)c2ccccc2)nnc1C(F)(F)F [Example 202] | 3.69^[b] | –
CC(C)COC(=O)Nc1cccc(CON=C(c2ccccc2)c2nnc(C(F)(F)F)n2C)n1 [Example 203] | 4.06^[b] | –
Cn1c(C(=NOCc2cccc(NC(=O)c3cccs3)n2)c2ccccc2)nnc1C(F)(F)F [Example 204] | 3.48^[b] | –
CCOc1ccc(C(=O)Nc2cccc(CON=C(c3ccccc3)c3nnc(C(F)(F)F)n3C)n2)cc1 [Example 205] | 3.94^[b] | –
CSCCC(=O)Nc1cccc(CON=C(c2ccccc2)c2nnc(C(F)(F)F)n2C)n1 [Example 206] | 3.15^[b] | –
CCCCC(=O)Nc1cccc(CON=C(c2ccccc2)c2nnc(C(F)(F)F)n2C)n1 [Example 207] | 3.58^[b] | –
Cn1ncnc1C(=NOCc1cccc(N2CCCCC2=O)n1)c1ccccc1 [Example 208] | 2.18^[b] | –
Cc1ncc(C(=NOCc2cccc(N)n2)c2ccccc2)n1C [Example 209] | 0.56^[b] | –
CCCCCOC(=O)Nc1cccc(CON=C(c2ccccc2)c2cnc(C)n2C)n1 [Example 211] | 3.13^[b] | –
CCCCCC(=O)Nc1cccc(CON=C(c2ccccc2)c2cnc(C)n2C)n1 [Example 212] | 2.08^[b] | –
Cc1nnsc1C(=NOCc1cccc(N2C(=O)c3ccccc3C2=O)n1)c1ccccc1 [Example 214] | 3.69^[b] | –
Cc1nnsc1C(=NOCc1cccc(N)n1)c1ccccc1 [Example 215] | 1.63^[b] | –
CCCCCC(=O)Nc1cccc(CON=C(c2ccccc2)c2snnc2C)n1 [Example 216] | 4.46^[b] | –
CCCCCOC(=O)Nc1cccc(CON=C(c2ccccc2)c2snnc2C)n1 [Example 217] | 5.11^[b] | –
Cc1nnsc1C(=NOCc1cccc(NC(=O)CC(C)C)n1)c1ccccc1 [Example 218] | 3.96^[b] | –

SMILES | log p | chromatographic logP
Cc1nnsc1C(=NOCc1cccc(NC(=O)Cc2ccccc2)n1)c1ccccc1 [Example 219] | 4.04^[b] | –
Cc1nnsc1C(=NOCc1cccc(NC(=O)CCc2ccccc2)n1)c1ccccc1 [Example 220] | 4.31^[b] | –
Cc1nnsc1C(=NOCc1cccc(NC(=O)CCC2CCCC2)n1)c1ccccc1 [Example 221] | 5^[b] | –
Cc1nnsc1C(=NOCc1cccc(NC(=O)OCC(C)C)n1)c1ccccc1 [Example 222] | 4.65^[b] | –
Cc1nnsc1C(=NOCc1cccc(NC(=O)CCC2CCCCC2)n1)c1ccccc1 [Example 223] | 5.41^[b] | –
CCCCC(=O)Nc1cccc(CON=C(c2ccccc2)c2snnc2C)n1 [Example 224] | 4.04^[b] | –
Cn1ccnc1C(=NOCc1cccc(N2C(=O)c3ccccc3C2=O)n1)c1cccc(F)c1 [Example 227] | 2.13^[b] | –
Cn1cnnc1C(=NOCc1cccc(Br)n1)c1ccccc1 [Example 228, N-[(6-bromopyridin-2-yl)methoxy]-1-(4-methyl-4H-1,2,4-triazol-3-yl)-1-phenylmethanimine] | – | 2.28
Cn1cnnc1C(=NOCc1cccc(C#CC2CC2)n1)c1ccccc1 [Example 229, N-{[6-(cyclopropylethynyl)pyridin-2-yl]methoxy}-1-(4-methyl-4H-1,2,4-triazol-3-yl)-1-phenylmethanimine] | – | 2.56
Cn1cnnc1C(=NOCc1cccc(C#CCC2CCCC2)n1)c1ccccc1 [Example 230] | 3.76^[b] | –
Cn1cnnc1C(=NOCc1cccc(C#CCC2CCCCC2)n1)c1ccccc1 [Example 231] | 4.14^[b] | –
Cn1cnnc1C(=NOCc1cccc(C#Cc2ccccc2)n1)c1ccccc1 [Example 232] | 3.15^[b] | –
Cn1ccnc1C(=NOCc1cccc(N)n1)c1cccc(F)c1 [Example 233] | 0.54^[b] | –
COc1ccccc1CC(=O)Nc1cccc(CON=C(c2ccccc2)c2ncnn2C)n1 [Example 234] | 3.17^[b] | –
Cn1ncnc1C(=NOCc1cccc(NC(=O)Cc2cccc(F)c2)n1)c1ccccc1 [Example 235] | 3.15^[b] | –
COCCC(=O)Nc1cccc(CON=C(c2ccccc2)c2ncnn2C)n1 [Example 237] | 2.17^[b] | –
Cn1ncnc1C(=NOCc1cccc(NC(=O)CCc2cccc(Cl)c2)n1)c1ccccc1 [Example 238] | 3.73^[b] | –
Cn1ncnc1C(=NOCc1cccc(NC(=O)CCc2cccc(C(F)(F)F)c2)n1)c1ccccc1 [Example 239] | 3.87^[b] | –
CC(C(=O)Nc1cccc(CON=C(c2ccccc2)c2ncnn2C)n1)c1ccccc1 (centres unmarked) [Example 240] | 3.42^[b] | –

SMILES | log p | chromatographic logP
Cn1ncnc1C(=NOCc1cccc(NC(=O)Cc2cc(F)cc(F)c2)n1)c1ccccc1 [Example 241] | 3.33^[b] | –
Cn1ncnc1C(=NOCc1cccc(NC(=O)Cc2ccc(Cl)cc2)n1)c1ccccc1 [Example 242] | 3.46^[b] | –
Cn1ncnc1C(=NOCc1cccc(NC(=O)Cc2ccccc2Cl)n1)c1ccccc1 [Example 243] | 3.31^[b] | –
Cn1ncnc1C(=NOCc1cccc(NC(=O)Cc2cccc(C(F)(F)F)c2)n1)c1ccccc1 [Example 244] | 3.64^[b] | –
Cn1ncnc1C(=NOCc1cccc(NC(=O)Cc2ccccc2C(F)(F)F)n1)c1ccccc1 [Example 245] | 3.51^[b] | –
COc1ccc(CC(=O)Nc2cccc(CON=C(c3ccccc3)c3ncnn3C)n2)cc1 [Example 246] | 3.02^[b] | –
COc1cccc(CC(=O)Nc2cccc(CON=C(c3ccccc3)c3ncnn3C)n2)c1 [Example 247] | 3.06^[b] | –
Cn1ncnc1C(=NOCc1cccc(NC(=O)C2CCCCC2)n1)c1ccccc1 [Example 248] | 3.39^[b] | –
Cn1ncnc1C(=NOCc1cccc(NC(=O)CCCc2ccccc2)n1)c1ccccc1 [Example 249] | 3.6^[b] | –
Cn1ncnc1C(=NOCc1cccc(NC(=O)CSc2ccccc2)n1)c1ccccc1 [Example 250] | 3.33^[b] | –
Cn1ncnc1C(=NOCc1cccc(NC(=O)C2CCCCO2)n1)c1ccccc1 (centres unmarked) [Example 251] | 3.15^[b] | –
CCc1ccc(C(=O)Nc2cccc(CON=C(c3ccccc3)c3ncnn3C)n2)cc1 [Example 252] | 3.73^[b] | –
CCCCCOC(=O)Nc1cccc(CON=C(c2ccccc2)c2cncn2C)n1 [Example 253] | 2.39^[b] | –
CCCCCCCCCC(=O)Nc1cccc(CON=C(c2ccccc2)c2cncn2C)n1 [Example 254] | 3.09^[b] | –
Cn1cncc1C(=NOCc1cccc(NC(=O)COc2ccccc2)n1)c1ccccc1 [Example 255] | 2.04^[b] | –
CCCC(=O)Nc1cccc(CON=C(c2ccccc2)c2cncn2C)n1 [Example 256] | 1.6^[b] | –
CCCCC(=O)Nc1cccc(CON=C(c2ccccc2)c2cncn2C)n1 [Example 258] | 1.82^[b] | –
CCC(C(=O)Nc1cccc(CON=C(c2ccccc2)c2cncn2C)n1)c1ccccc1 (centres unmarked) [Example 259] | 2.3^[b] | –
